Experimental data taken from publication PMC5958115, “A novel small molecule chaperone of rod opsin and its potential therapy for retinal degeneration” (Nature Communications, 2018).

Columns and labels:
[1] = target: T1, P23H opsin (Mus musculus, UniProt P15409, P23H); test: Immunoblot of P23H opsin glycosylation in NIH3T3 cell lysates; type: cell-based; set-up: key to Improved glycosylation: n = no; y = yes; conditions: P23H opsin
T1 construct: expressed in transfected cells
Experimental: NIH3T3-(P23H opsin/GFP) or NIH3T3-(WT-opsin/GFP) cells were seeded in a 48-well plate (Corning Costar) at 3.2 × 10^5 cells per well and incubated at 37 °C with 5% CO2 for 2 h. One hundred-µL of assay medium containing a compound at 5× its final concentration was added to each well. The plate was gently shaken for 5 s before further incubation at 37 °C with 5% CO2 for 24 h. The assay medium then was aspirated, and cells were lysed with 100 µL per well PBS containing 0.1% Triton X-100 and complete protease inhibitor cocktail (Roche, Basel, Switzerland) followed by sonication for 3 s. Protein concentrations were determined with the Bradford assay. For PNGaseF catalyzed deglycosylation, 3 µL of PNGaseF (1500 U, NEB) was added to the cell lysate and the mixture was incubated at room temperature for 1 h before immunoblotting. For NIH3T3-(P23H opsin/GFP) cells, 15 µg of total protein were loaded per well onto an SDS-polyacrylamide gel; whereas for NIH3T3-(WT-opsin/GFP) cells, 5 µg of total protein was loaded per well. Opsin protein was immunostained with 0.2 μg mL^−1 horseradish peroxidase-conjugated 1D4 anti-rhodopsin antibody. Band intensities were measured with ImageJ software (http://imagej.nih.gov/ij/; National the Institutes of Health, Bethesda, MD, USA) and normalized to a glyceraldehyde 3-phosphate dehydrogenase (GAPDH) loading control. Full scans of immunoblotted membranes are shown in Supplementary Fig. 8.

[2] = target: mouse P23H-opsin mutant (Mus musculus, UniProt P15409, P23H); test: β-Gal fragment complementation assay: rescue of P23H opsin transport from ER to plasma membrane, U2OS(PLC-EA/P23H-PK) cells; type: cell-based; conditions: for β-Gal fragment complementation assay Activity score (%) Max (Exp) / β-Gal fragment complementation assay Activity score (%) Max (fit) / Efficacy: 24 h, 5 µM 9-cis-retinal = 100%; for β-Gal fragment complementation assay Activity score (%) Max (Exp): experimental maximum; for β-Gal fragment complementation assay Activity score (%) Max (fit) / Efficacy: from curve fitting; for EC50: 24 h preincubation, activity standardized to 5 µM 9-cis-retinal as 100%, Hill fit, read-out: β-Gal fragment complementation assay Activity score (%) EC50
Text: U2OS(PLC-EA/P23H-PK) cells. A U2OS stable cell line was generated by DiscoveRx, Inc. (Fremont, CA, USA) for the β-Gal fragment complementation assay used in the small-molecule HTS for rescue of P23H-opsin transport. U2OS cells that continually express P23H-PK and PLC-EA fusion proteins were generated. Briefly, this small subunit of β-Gal (PK fragment) was fused to the C-terminal of the mouse P23H-opsin mutant, while the large EA fragment, a subunit of β-Gal, was fused with PLC, a plasma membrane-anchored peptide. Both constructs were subcloned by DicoveRx, Inc. and transferred into U2OS cells by viral infections. Positive clones were selected under treatment with hygromycin and geneticin.
Briefly, U2OS(PLC-EA /P23H-PK) cells were suspended in assay medium at 3 × 10^5 cells mL^−1. The cell suspension was dispensed into 384-well plates (Greiner Bio-one, Monroe, NC, USA) at 20 µL per well, with a Multidrop dispenser (Thermo Scientific, Waltham, MA, USA). Plates with cells then were centrifuged at 200×g for 15 s before incubation at 37 °C with 5% CO2. Plates were removed 24 h later for treatment with tested compounds. A total of 248 plates containing 79,080 compounds from three small-molecule libraries were paired with an equal number of assay plates with cultured cells. Owing to a limited capacity, these plates were assayed in seven batches. An average of 56.3 nL of 10 mM compound in DMSO was dispensed into each well from column 3 to 22 of paired assay plates using a 50 nL 384-pintool system, such that the final concentration of each compound was 22.52 µM on average. […] Each assay plate was shaken for 5 s before further incubation at 37 °C with 5% CO2. After 24 h, assay plates were removed, and each well was incubated with 25 µL of 1× Gal-Screen assay buffer (1:24 substrate-buffer ratio). Assay plates were incubated in the dark for 60–90 min, and luminescence was read from each assay plate with an Envision microplate reader (PerkinElmer) during a 0.1 s per well integration time. The mean and s.d. of readouts in column 2 of each plate were calculated as Mean0% and SD0%, whereas the average and s.d. of readouts in column 23 were calculated as Mean100% and SD100%. Eq. 1: Activity scores (%) = (RLUcp − Mean0%)/(Mean100% − Mean0%) × 100%, where RLUcp is the relative luminescence unit derived for cells treated with a compound. Eq. 2: Z′-factor = 1–3 × (SD0% + SD100%)/(Mean100% − Mean0%)[32]; Eq. 3: signal-to-background (S/B) ratio = Mean100%/Mean0%. Activities of all tested compounds were registered with their compound ID by GeneData Screener (Genedata, Basel, Switzerland) and Pipeline Pilot software (Accelrys, San Diego, CA, USA). Hits, cherry-picked from a separate stock dose-dependent activity test, were selected with an activity score cutoff at 20%. Activity of each hit was tested again with the β-Gal fragment complementation assay in a 10-dose series with each dose tested in triplicate. The 10 doses tested were 80, 40, 20, 10, 5, 2.5, 1.25, 0.625, 0.313, and 0.156 µM. Dose-dependent curves of each hit compound were fitted with GeneData and Origin software.
Detailed synthetic steps are described in Supplementary Note and Supplementary Fig. 9. […] YC-002-YC-021 were purchased from commercial vendors including Enamine LLC (Monmouth Jct., NJ, USA), Matrix Scientific (Columbia, SC, USA) and Tokyo Chemical Industry Co., Ltd. (Portland, OR, USA). […] Activities of YC compounds were tested with the β-Gal fragment complementation assay, as described in a prior section. All YC compounds were tested at 10 doses, each in triplicate: 80, 40, 20, 10, 5, 2.5, 1.25, 0.625, 0.313, and 0.156 µM.

[3] = target: T2, mouse P23H opsin (Mus musculus, UniProt P15409, P23H); test: High-content imaging analysis of P23H opsin immunostaining in NIH3T3-(P23H opsin/GFP) cells; type: cell-based; conditions: ratio of P23H rod opsin fluorescence on plasma membrane to whole cell; for EC50: read-out: Immunostaining HCS MEM-Total ratio EC50
T2 construct: expressed in transfected cells
Experimental: To characterize the effect of active compounds on the localization of P23H-mutant opsin in mammalian cells, an image-based assay was used with cells immunostained for WT or P23H-mutant opsin protein[18]. Briefly, NIH3T3-(P23H opsin/GFP) or NIH3T3-(WT-opsin/GFP) cells were seeded at 5000 cells per well in a 384-well cell-carrier plate (PerkinElmer) and incubated at 37 °C with 5% CO2 for 2 h. Cells were treated with compounds as described for the β-Gal fragment complementation assay and incubated in assay medium for 24 h. The assay medium then was aspirated, and cells were fixed with 4% paraformaldehyde at 20 µL per well for 20 min at RT. Cells were immunostained in one of two ways: cell membranes were either permeabilized with 0.1% Triton X-100 for 15 min or left intact and then were incubated with 10% goat serum (Life Technologies). To detect opsin on the cell plasma membrane only, intact cells were immunostained with 20 µL per well of 20 µg mL^−1 B6-30 anti-rhodopsin antibody that recognizes the N-terminal epitope on the extracellular side of rhodopsin. To detect total opsin, cells were permeabilized with Triton X-100 and immunostained with 50 µg mL^−1 1D4 anti-rhodopsin antibody specific for the C-terminal epitope on the intracellular side of rhodopsin. Opsin immunostaining was visualized by incubating cells with 5 µg mL^−1 Cy3-conjugated goat anti-mouse IgG antibody. Three washes with phosphate-buffered saline (PBS: 10 mM Na2HPO4, 1.8 mM KH2PO4, pH 7.4, 137 mM NaCl, and 2.7 mM KCl) were performed between each step of incubation with antibody. In the last wash with PBS, DAPI was added to each well at 300 nM. Fluorescence images were obtained with the Operetta High Content Imaging System (PerkinElmer) using a ×20 long objective. Five fields were taken of each well for cell images using three channels for fluorescence: GFP (100 ms), Cy3 (300 ms), and DAPI (50 ms). Images were analyzed with Acapella software from the Columbus data storage and analysis system (PerkinElmer)[18]. For cells immunostained with opsin on the non-permeabilized cell membrane only, an average of total fluorescence intensity of Cy3 per cell was used to quantify opsin in each well of the 384-well plate. For cells immunostained with opsin in permeabilized whole cells, an average ratio of Cy3 intensity on the cell plasma membrane (PM) to that of the entire cell (opsin ratio PM-to-total) was calculated for each well of a 384-well plate to quantify opsin transport to the plasma membrane. The plasma membrane was defined within ± 5% of the cell border.

[4] = target: bovine isorhodopsin (rod opsin regenerated with 9-cis-retinal), photoactivated (bovine) (UniProt P02699)
Sequence of bovine isorhodopsin (rod opsin regenerated with 9-cis-retinal), photoactivated (bovine) (P02699 whole entry): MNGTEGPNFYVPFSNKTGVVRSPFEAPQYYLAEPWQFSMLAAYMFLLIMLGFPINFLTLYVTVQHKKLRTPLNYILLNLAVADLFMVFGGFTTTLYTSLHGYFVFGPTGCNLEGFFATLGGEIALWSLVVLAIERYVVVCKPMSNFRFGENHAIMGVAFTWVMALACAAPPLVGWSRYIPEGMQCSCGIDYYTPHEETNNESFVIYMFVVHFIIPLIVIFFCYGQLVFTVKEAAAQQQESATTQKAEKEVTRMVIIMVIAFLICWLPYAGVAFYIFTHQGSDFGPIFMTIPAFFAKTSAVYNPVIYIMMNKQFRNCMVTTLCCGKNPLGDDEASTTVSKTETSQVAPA

[5] = target: bovine rod opsin in ROS disc membranes (bovine) (UniProt P02699)
Sequence of bovine rod opsin in ROS disc membranes (bovine) (P02699 whole entry): as above

Sequence of Gt (P04695 whole entry, looked up): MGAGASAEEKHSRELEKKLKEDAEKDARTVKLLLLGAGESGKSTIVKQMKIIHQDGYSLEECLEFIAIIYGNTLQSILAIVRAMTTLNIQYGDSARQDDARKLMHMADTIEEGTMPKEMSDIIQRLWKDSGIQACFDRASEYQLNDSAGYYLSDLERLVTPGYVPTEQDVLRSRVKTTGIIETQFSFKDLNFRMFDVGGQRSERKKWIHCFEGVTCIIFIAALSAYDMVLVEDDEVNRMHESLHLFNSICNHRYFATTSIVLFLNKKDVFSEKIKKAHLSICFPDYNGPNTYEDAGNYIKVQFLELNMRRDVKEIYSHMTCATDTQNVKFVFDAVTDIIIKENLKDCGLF

Row | Improved glycosylation [1] | β-Gal fragment complementation assay Activity score (%) Max (Exp) [2] [%] | β-Gal fragment complementation assay Activity score (%) Max (fit) / Efficacy [2] [%] | EC50 [2] [µM] | Immunostaining HCS MEM-Total ratio Max (fit) [3] | EC50 [3] [µM] | initial rate of Gt activation upon illumination (intrinsic Gtα fluorescence after addition of 300 µM GTPγS), isorhodopsin regenerated with 40 µM 9-cis-retinal alone [4] | initial rate of Gt activation upon illumination (intrinsic Gtα fluorescence after addition of 300 µM GTPγS), isorhodopsin regenerated with 40 µM 9-cis-retinal and 40 µM YC-001 together [4] | initial rate of Gt activation (intrinsic Gtα fluorescence after addition of 300 µM GTPγS), opsin membranes treated with 40 µM YC-001 [5] | initial rate of Gt activation (intrinsic Gtα fluorescence after addition of 300 µM GTPγS), opsin membranes treated with 40 µM YC-014 [5] | initial rate of Gt activation (intrinsic Gtα fluorescence after addition of 300 µM GTPγS), opsin membranes treated with DMSO [5] | Compound
1 | n | 24.8 | 25.2 | 8.61 | 0.063 | 4.2 |  |  |  |  |  | O=C(NCC#CCN1CCCC1)c1cc(-c2ccccc2)on1 [Compound F6244-1415]
2 | n | 211 | 234 | 10.7 | 0.022 | 1.07 |  |  |  |  |  | Cc1cc(OCC(=O)Nc2cc(N3CCOCC3)ncn2)cc(C)c1Cl [Compound F6257-1860]
3 |  |  |  |  |  |  | -4.6 | -4.9 | -6.1 | -5.7 | -5.3 | Gt (from UniProt P04695 1-350) (complex)
